The values that follow come from patent US4382088A, “4,7-Dihydro-4,7-dioxi-1H-cyclohepta[b]pyridine derivatives” (Ayerst, McKenna & Harrison, Inc., priority 1981, dated 1983).

Data set [1] has as its system aldose reductase. The settings on record: Dvornik et al. 1973; Peterson et al. 1979; cited from earlier work.
Data set [2] addresses T1, aldose reductase (Bos taurus, UniProt P16116).
T1 construct: preparation of the enzyme from bovine lens; from tissue; host or cells: bovine lens
Description: in vitro aldose reductase inhibition (modified Hayman and Kinoshita procedure, enzyme from bovine lens). The data set is classed as biochemical. The conditions noted are these: for inhibition at 10 µM: 10^-5 molar, read-out: % Inhibition at Different Molar Concentrations (in vitro), 10^-5; for inhibition at 1 µM: 10^-6 molar, read-out: % Inhibition at Different Molar Concentrations (in vitro), 10^-6; for inhibition at 0.1 µM: 10^-7 molar, read-out: % Inhibition at Different Molar Concentrations (in vitro), 10^-7. The protocol:
In the present case the procedure of Hayman and Kinoshita is modified in that the final chromatography step is omitted in the preparation of the enzyme from bovine lens.
The following results were obtained when the foregoing listed compounds of formula I were evaluated in the above in vitro test.

Data set [3] is described as follows: hygroscopicity of analytical sample. The data set is classed as physicochemical. The settings on record: analytical sample dried under reduced pressure at 140° C. The protocol:
3-(Ethoxycarbonyl)-4,7-dihydro-6-methoxy-4,7-dioxo-1H-cyclohepta[b]pyridine-1-acetic acid ethyl ester (2.5 g), described in example 5, was heated at reflux in 15% (w/v) aqueous HCl for 2 hr. The resulting precipitate was collected, washed with water and acetone, and recrystallized from water to give 1.8 g of the title compound; mp 272°-274° C.; nmr (DMSO-d6) δ3.95 (s, 3H), 5.5 (s, 2H), 7.28 & 7.75 (2d, 2H), 7.95 (s, 1H), 9.0 (1H, s); ir (Nujol*) 2900, 1700, 1565, 1265, 1165 cm^-1; uv λmax (MeOH) 347 nm (ε11,630), 306 (10,470), 266 (21,365), 249 (32,290). An analytical sample dried under reduced pressure at 140° C. was hygroscopic; Anal Calcd for C14 H11 NO7 : C, 55.09% H, 3.63% N, 4.59%; Found: C, 54.41% H, 3.60% N, 4.55%.

Regarding `O=C(O)CN1C(=O)c2cccc3cccc(c23)C1=O` [1,3-Dioxo-1H-benz[de]isoquinoline-2(3H)-acetic acid], in data set [1], the “aldose reductase inhibition reported in the literature, in words” value is on record as “effective inhibitor of aldose reductase”.
Consider `CCOC(=O)COc1cc2c(=O)c(C(=O)OCC)cn(CC(=O)OCC)c2ccc1=O` [Example 5 (R^3 = OCH2 COOC2 H5), 3-(ethoxycarbonyl)-6-[(2-ethoxy-2-oxoethyl)oxy]-4,7-dihydro-4,7-dioxo-1H-cyclohepta[b]pyridine-1-acetic acid ethyl ester], for which, in data set [2], the inhibition at 10 µM worked out at 40%.
For the compound `O=C(O)COc1cc2c(=O)c(C(=O)O)cn(CC(=O)O)c2ccc1=O` [Example 7 (R^3 = OCH2 COOH), 3-carboxy-6-[(carboxymethyl)oxy]-4,7-dihydro-4,7-dioxo-1H-cyclohepta[b]pyridine-1-acetic acid monohydrate], in data set [2], the inhibition at 10 µM worked out at 97%, the inhibition at 1 µM worked out at 88% and the inhibition at 0.1 µM worked out at 31%.
As to `COc1cc2c(=O)c(C(=O)O)cn(CC(=O)O)c2ccc1=O` [Example 7 (R^3 = OCH3), 3-Carboxy-4,7-dihydro-6-methoxy-4,7-dioxo-1H-cyclohepta[b]pyridine-1-aceticAcid], in data set [2], the inhibition at 10 µM is 89%, the inhibition at 1 µM amounted to 79% and the inhibition at 0.1 µM was 30%. In data set [3], the hygroscopicity result was “hygroscopic”.
`O=C(O)Cn1cc(C(=O)O)c(=O)c2cc(OCc3ccccc3)c(=O)ccc21` [Example 8, 6-Benzyloxy-3-carboxy-4,7-dihydro-4,7-dioxo-1H-cyclohepta[b]pyridine-1-acetic Acid]: in data set [2], the inhibition at 10 µM worked out at 88%, the inhibition at 1 µM is 79% and the inhibition at 0.1 µM is 37%.
For `O=C1NC(=O)[C@@]2(CCOc3ccc(F)cc32)N1` [sorbinil, (S)-6-Fluoro-2,3-dihydrospiro(4H-1-benzopyran-4,4'-imidazolidine)-2',5'-dione], the “aldose reductase inhibition reported in the literature, in words” value in data set [1] was “aldose reductase inhibiting properties”.
